This note sets out measurements from ChEMBL document CHEMBL1142969, “Venturamides A and B: antimalarial constituents of the panamanian marine Cyanobacterium Oscillatoria sp” (J Nat Prod, 2007).

One assay relates to Vero. Put plainly: Cytotoxicity against Vero cells after 72 hrs. It is filed as cell-based. The following applies: Chlorocebus sabaeus.
In another assay the test system is MCF7. Put plainly: Growth inhibition of MCF7 cells. It is filed as functional, cell-based. The following applies: Homo sapiens.
In a further assay the test system is Trypanosoma cruzi. Put plainly: Growth inhibition of Trypanosoma cruzi recombinant Tulahuen C4. It is filed as functional, organism-based.
For the next assay, the system named is Plasmodium falciparum. Put plainly: Antiplasmodial activity against chloroquine-resistant Plasmodium falciparum W2 Indochina. It is filed as functional, organism-based.
The next assay has as its system Leishmania donovani. Put plainly: Growth inhibition of Leishmania donovani MHOM/SD/00-1S after 72 hrs by amastigote assay. It is filed as functional, organism-based.

By IC50 is commonly meant the point on the concentration scale where inhibition reaches its midpoint.

In the case of `Cc1oc2nc1C(=O)N[C@H]([C@@H](C)O)c1nc(cs1)C(=O)N[C@H](C(C)C)c1nc(cs1)C(=O)N[C@@H]2C` [VENTURAMIDE B], the IC50 is 56 µM with Vero; greater than 54 µM in the assay on MCF7; 15.8 µM in the assay with Trypanosoma cruzi; 5.2 µM in the assay with Plasmodium falciparum; greater than 19 µM in the assay with Leishmania donovani.
The matching figures for `Cc1oc2nc1C(=O)N[C@H](C)c1nc(cs1)C(=O)N[C@H](C(C)C)c1nc(cs1)C(=O)N[C@@H]2C` [VENTURAMIDE A]: 86 µM, 13.1 µM, 14.6 µM, 8.2 µM and greater than 20 µM.
